This passage reports EC50 and MIC results from patent US10457707B2, “Substituted urea depsipeptide analogs as activators of the CLPP endopeptidase” (priority 2015, dated 2019).

In brackets after ≈: the same amount, converted by molar mass. Like-named read-outs stand apart in the source and are kept apart here. *1 amine or outer side, *2 acyl side, *3 side chain or, on linkers, in order; H or OH if unused. Where a SMILES comes first, the peptide text is derived from it. Bridges are numbered along the chain shown (N, C = ends). [ ]: non-standard residue; d: D form. The star is where a group is joined. NH(1,3-benzodioxol-5-yl) = c1cc2c(cc1N*)OCO2; Phe(3,5-F2) = N[C@@H](Cc1cc(F)cc(F)c1)C(=O)O; NMepT = CN[C@H](C(=O)O)[C@@H](C)OP(=O)(O)O; Morpholine(3S-CO) = O=C(O)[C@@H]1COCCN1; Pro(4S-Me) = C[C@@H]1CN[C@H](C(=O)O)C1; NH(4-Cl-2-F-phenyl) = Fc1cc(Cl)ccc1N*; Pro(4R-Me) = C[C@H]1CN[C@H](C(=O)O)C1; NMeaThr = CN[C@H](C(=O)O)[C@H](C)O; Hyp = O=C(O)[C@@H]1C[C@@H](O)CN1; NH(4-Et-phenyl) = CCc1ccc(N*)cc1; NH(4-Me-phenyl) = Cc1ccc(N*)cc1; aThr = C[C@H](O)[C@H](N)C(=O)O; Pip = O=C(O)[C@@H]1CCCCN1; X2 = CN1CCc2ccc(N*)cc21; CO = O=C([*:1])[*:2]

Assay [1] addresses T1, Sa-ClpP (Staphylococcus aureus, UniProt Q2G036).
T1 construct: made in house; host or cells: E. coli BL21(DE3)
T1 sequence (Q2G036 1-195): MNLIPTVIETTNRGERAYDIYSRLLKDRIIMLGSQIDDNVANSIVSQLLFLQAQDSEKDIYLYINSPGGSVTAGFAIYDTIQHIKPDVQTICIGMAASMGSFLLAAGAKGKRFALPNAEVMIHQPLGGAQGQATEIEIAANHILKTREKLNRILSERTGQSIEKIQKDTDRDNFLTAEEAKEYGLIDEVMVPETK
As to the kind of experiment: Sa-ClpP casein-BODIPY ClpP activation assay, method variant not marked in Table 5. The class given is biochemical, S. aureus. As to the method:
The compounds were assayed in a casein digestion assay in order to determine their effect on ClpP activation. Briefly, the assay was carried out using S. aureus ClpP (“Sa-ClpP”) overexpressed in E. coli BL21(DE3) and purified in a two-step process. Purity of the protein was assessed through SDS PAGE analysis. EC50 evaluations were conducted in triplicate in a 20 μl assay format using a method adapted from Maurizi et al. (Methods Enzymol. (1994) 244:314-331). Each well contained 10 μM saClpP, 25 μg/ml BODIPY FL casein (Invitrogen Corporation, San Diego, Calif.), and test compound in concentrations ranging between 0-1000 μM in assay buffer (50 mM Tris pH 8, 200 mM KCl, and 1 mM TCEP). The reaction took place at 37° C. Fluorescence (excitation 485 nm; emission 528 nm) was measured in five minute intervals over a 45 min period using a BioTek HT fluorescence microplate reader (BioTek Instruments, Inc., Winooski, Vt.). Velocity of each reaction was calculated and data was fit to a dose response curve using GraphPad Prism® software (GraphPad Software, Inc., La Jolla, Calif.). EC50 is the effective concentration of compound which causes 50% activation of S. aureus ClpP in the foregoing BODIPY FL casein assay.
Alternatively, the assay was carried out using EnzCheck Protease Assay (Molecular Probes, Catalog # E6638). The assay was performed in black 384 well, flat bottom, low volume plates (Greiner Bio-One, Monroe, N.C., catalog #784076). 10 μL of Tris*HCl buffer, pH 8.0 with 0.01% Triton X-100 was pipetted into each well using a Well-Mate (Thermo Scientific, Waltham, Mass.). 0.4 μL test compounds or controls (2% DMSO v/v) were added to each well using a Biomek FX liquid handling robot (Beckman Coulter, Indianapolis Ind.). After addition of test compounds and controls, 10 μL of master mix containing 2 μM Sa-ClpP and 2 μM substrate (Bodipy-FL labeled casein) in Tris*HCl buffer, pH 8.0 with 0.01% (v/v) Triton X-100, was pipetted into each well. All assays were performed in triplicate, under linear velocity conditions. Increase in fluorescent signal following activation of Sa-ClpP by test compounds and controls was measured over time period of 30 mins using filters with excitation at 485±15 nm and emission at 520±25 nm on a PHERAstar FS Multilabel reader (BMG, Cary, N.C.). […] Data analysis was done by measuring rate of casein degradation over time (slopes). Computed degradation rates (slopes) were normalized to positive (ADEP4) or negative (DMSO) controls. Using nonlinear regression curve fitting EC50 values and % activation were determined using the equation “log [agonist] vs. Response-variable slope (four parameters)-symmetrical” in the program Prism 6 (GraphPad Software, La Jolla, Calif. USA, www.graphpad.com).
Substituted urea depsipetide analogs were synthesized as described above. The EC50 for ClpP activation was determined in the Sa-ClpP in casein-BODIPY assay as described above. The IC50 for ADEP displacement was determined in the ADEP displacement fluorescent polarization assay as described above; and the IC50 for growth inhibition was determined in the Vero cell cytotoxicity assay as described above. The compound number corresponds to the compound numbers used in Tables 1-4 and the experimental examples described above.

Assay [2] deals with Streptococcus pneumoniae, R6. Description: Minimal inhibitory concentration assay. The class given is cell-based. Conditions: read-out: Minimal Inhibitory Concentrations S. pneumoniae R6. An outline of the steps: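 Microbroth dilution with two-fold serial compound dilutions in broth, incubated aerobically overnight at 37° C. MIC taken as the lowest concentration preventing bacterial growth.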

[3] abbreviates: values without ** or † mark, assay variant not stated, read-out: ClpP Activation EC50.

Regarding `Cc1ccc(NC(=O)N[C@@H](Cc2cc(F)cc(F)c2)C(=O)N[C@@H]2C(=O)N3CCC[C@H]3C(=O)N(C)[C@@H]([C@@H](C)OP(=O)(O)O)C(=O)N[C@@H](C)C(=O)N3C[C@@H](C)C[C@H]3C(=O)O[C@H]2C)cc1` [Compound 188, (R)-1-((2S,6S,9S,11aS,17S,18S,20aS)-17-((S)-3-(3,5-difluorophenyl)-2-(3-(p-tolyl)ureido)propanamido)-2,6,10,18-tetramethyl-5,8,11,16,20-pentaoxohexadecahydro-1H,5H,16H-dipyrrolo[2,1-c:2′,1′-l][1]oxa[4,7,10,13]tetraazacyclohexadecin-9-yl)ethyl dihydrogen phosphate] ({NH(4-Me-phenyl)-CO}-[Phe(3,5-F2)][aThr]P[NMepT]A[Pro(4S-Me)]; ester 2-C), the concentration giving a half-maximal response (EC50) in assay [1] (setting [3]) amounted to 1800 ± 70 nM. Also, the MIC in assay [2] worked out at 13 µM.
The like results for `C[C@@H]1C[C@H]2C(=O)OC[C@H](NC(=O)[C@H](Cc3ccccc3)NC(=O)Nc3ccc4c(c3)OCO4)C(=O)N3CCC[C@H]3C(=O)N3CCCC[C@H]3C(=O)N[C@@H](C)C(=O)N2C1` [Compound 194, (S)-2-(3-(benzo[d][1,3]dioxol-5-yl)ureido)-N-((2R,6S,8aS,14aS,20S,23aS)-2,6-dimethyl-5,8,14,19,23-pentaoxooctadecahydro-1H,5H,14H,19H-pyrido[2,1-i]dipyrrolo[2,1-c:2′,1′-l][1]oxa[4,7,10,13]tetraazacyclohexadecin-20-yl)-3-phenylpropanamide] were, in that order, 1200 ± 600 nM and under 0.2 µM.
The like results for `Cc1ccc(NC(=O)N[C@@H](Cc2cc(F)cc(F)c2)C(=O)N[C@@H]2C(=O)N3CCC[C@H]3C(=O)N(C)[C@@H]([C@H](C)O)C(=O)N[C@@H](C)C(=O)N3C[C@@H](C)C[C@H]3C(=O)O[C@H]2C)cc1` [Compound 202, (S)-3-(3,5-difluorophenyl)-N-((2S,6S,9S,11aS,17S,18S,20aS)-9-((S)-1-hydroxyethyl)-2,6,10,18-tetramethyl-5,8,11,16,20-pentaoxohexadecahydro-1H,5H,16H-dipyrrolo[2,1-c:2′,1′-L][1]oxa[4,7,10,13]tetraazacyclohexadecin-17-yl)-2-(3-(p-tolyl)ureido)propanamide] ({NH(4-Me-phenyl)-CO}-[Phe(3,5-F2)][aThr]P[NMeaThr]A[Pro(4S-Me)]; ester 2-C) were, in that order, 480 ± 30 nM and 0.049 µM (≈ 0.0398 µg/mL).
In the case of `Cc1ccc(NC(=O)N[C@@H](Cc2cc(F)cc(F)c2)C(=O)N[C@H]2COC(=O)[C@@H]3C[C@@H](C)CN3C(=O)[C@H](C)NC(=O)[C@@H]3COCCN3C(=O)[C@@H]3C[C@@H](O)CN3C2=O)cc1` [Compound 317, (S)-3-(3,5-difluorophenyl)-N-((6aS,8R,12S,15aS,17R,21S,23aS)-8-hydroxy-17,21-dimethyl-6,11,15,20,23-pentaoxooctadecahydro-6H,11H,15H-[1,4]oxazino[3,4-i]dipyrrolo[2,1-c:2′,1′-l][1]oxa[4,7,10,13]tetraazacyclohexadecin-12-yl)-2-(3-(p-tolyl)ureido)propanamide] ({NH(4-Me-phenyl)-CO}-[Phe(3,5-F2)]S[Hyp][Morpholine(3S-CO)]A[Pro(4R-Me)]; ester 2-C), the concentration for a half-maximal effect (EC50) in assay [1] (setting [3]) amounted to 380 ± 30 nM.
With `C[C@@H]1C[C@H]2C(=O)OC[C@H](NC(=O)[C@H](Cc3cc(F)cc(F)c3)NC(=O)Nc3ccc4c(c3)OCO4)C(=O)N3C[C@H](O)C[C@H]3C(=O)N3CCOC[C@H]3C(=O)N[C@@H](C)C(=O)N2C1` [Compound 318, (S)-2-(3-(benzo[d][1,3]dioxol-5-yl)ureido)-3-(3,5-difluorophenyl)-N-((6aS,8R,12S,15aS,17R,21S,23aS)-8-hydroxy-17,21-dimethyl-6,11,15,20,23-pentaoxooctadecahydro-6H,11H,15H-[1,4]oxazino[3,4-i]dipyrrolo[2,1-c:2′,1′-l][1]oxa[4,7,10,13]tetraazacyclo-hexadecin-12-yl)propanamide] ({NH(1,3-benzodioxol-5-yl)-CO}-[Phe(3,5-F2)]S[Hyp][Morpholine(3S-CO)]A[Pro(4R-Me)]; ester 2-C), the EC50 in assay [1] was 460 ± 60 nM.
In the case of `C[C@@H]1C[C@H]2C(=O)O[C@@H](C)[C@H](NC(=O)[C@H](Cc3cc(F)cc(F)c3)NC(=O)Nc3ccc4c(c3)OCO4)C(=O)N3C[C@H](O)C[C@H]3C(=O)N3CCOC[C@H]3C(=O)N[C@@H](C)C(=O)N2C1` [Compound 319, (S)-2-(3-(benzo[d][1,3]dioxol-5-yl)ureido)-3-(3,5-difluorophenyl)-N-((6aS,8R,12S,13S,15aS,17R,21S,23aS)-8-hydroxy-13,17,21-trimethyl-6,11,15,20,23-pentaoxooctadecahydro-6H,11H,15H-[1,4]oxazino[3,4-i]dipyrrolo[2,1-c:2′,1′-l][1]oxa[4,7,10,13]tetraazacyclo-hexadecin-12-yl)propanamide] ({NH(1,3-benzodioxol-5-yl)-CO}-[Phe(3,5-F2)][aThr][Hyp][Morpholine(3S-CO)]A[Pro(4R-Me)]; ester 2-C), in assay [1], a half-maximal effect (EC50) was put at 450 ± 40 nM.
For the molecule `CCc1ccc(NC(=O)N[C@@H](Cc2cc(F)cc(F)c2)C(=O)N[C@@H]2C(=O)N3C[C@H](O)C[C@H]3C(=O)N3CCOC[C@H]3C(=O)N[C@@H](C)C(=O)N3C[C@H](C)C[C@H]3C(=O)O[C@H]2C)cc1` [Compound 320, (S)-3-(3,5-difluorophenyl)-2-(3-(4-ethylphenyl)ureido)-N-((6aS,8R,12S,13S,15aS,17R,21S,23aS)-8-hydroxy-13,17,21-trimethyl-6,11,15,20,23-pentaoxooctadecahydro-6H,11H,15H-[1,4]oxazino[3,4-i]dipyrrolo[2,1-c:2′,1′-l][1]oxa[4,7,10,13]-tetraazacyclohexadecin-12-yl)propanamide] ({NH(4-Et-phenyl)-CO}-[Phe(3,5-F2)][aThr][Hyp][Morpholine(3S-CO)]A[Pro(4R-Me)]; ester 2-C), in assay [1], the response was half-maximal at 330 ± 100 nM (EC50).
Turning to `C[C@@H]1C[C@H]2C(=O)O[C@@H](C)[C@H](NC(=O)[C@H](Cc3cc(F)cc(F)c3)NC(=O)Nc3ccc4c(c3)N(C)CC4)C(=O)N3CCC[C@H]3C(=O)N3CCCC[C@H]3C(=O)N[C@@H](C)C(=O)N2C1` [Compound 321, (S)-3-(3,5-difluorophenyl)-2-(3-(1-methylindolin-6-yl)ureido)-N-((2R,6S,8aS,14aS,20S,21S,23aS)-2,6,21-trimethyl-5,8,14,19,23-pentaoxooctadecahydro-1H,5H,14H,19H-pyrido[2,1-i]dipyrrolo[2,1-c:2′,1′-l][1]oxa[4,7,10,13]tetraazacyclo-hexadecin-20-yl)propanamide] ({X2-CO}-[Phe(3,5-F2)][aThr]P[Pip]A[Pro(4R-Me)]; ester 2-C), the concentration for a half-maximal effect (EC50) in assay [1] (setting [3]) was found to be 520 ± 20 nM.
For the molecule `C[C@@H]1C[C@H]2C(=O)O[C@@H](C)[C@H](NC(=O)[C@H](Cc3cc(F)cc(F)c3)NC(=O)Nc3ccc(Cl)cc3F)C(=O)N3C[C@H](O)C[C@H]3C(=O)N3CCCC[C@H]3C(=O)N[C@@H](C)C(=O)N2C1` [Compound 329, (S)-2-(3-(4-chloro-2-fluorophenyl)ureido)-3-(3,5-difluorophenyl)-N-((2R,6S,8aS,14aS,16R,20S,21S,23aS)-16-hydroxy-2,6,21-trimethyl-5,8,14,19,23-pentaoxooctadecahydro-1H,5H,14H,19H-pyrido[2,1-i]dipyrrolo[2,1-c:2′,1′-l][1]oxa[4,7,10,13]tetraazacyclo-hexadecin-20-yl)propanamide] ({NH(4-Cl-2-F-phenyl)-CO}-[Phe(3,5-F2)][aThr][Hyp][Pip]A[Pro(4R-Me)]; ester 2-C), the half-maximal effective concentration (EC50) in assay [1] amounted to 400 ± 20 nM.
